In ChEMBL document CHEMBL1201862, “PubChem BioAssay data set” (2004):
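Each compound was tested at five concentrations against cells in 96-well plates for 48 hours. GI50 is the concentration that inhibits growth by half.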 The source made the active and inactive calls. No stated cut-off is given here; in the data, active = GI50 up to about 1.1 µM and inactive = higher.

Tests used:
Experiment in all cases: inhibition of tumour cell growth, NCI panel, 48 h
OVCAR-4 = system: OVCAR-4
SF-295 = system: SF-295
IGROV-1 = system: IGROV-1
RPMI-8226 = system: RPMI-8226
KM12 = system: KM12
HT-29 = system: HT-29
OVCAR-5 = system: OVCAR-5
SNB-19 = system: SNB-19
UACC-257 = system: UACC-257
CAKI-1 = system: CAKI-1
HCT-15 = system: HCT-15
SR = system: SR
OVCAR-8 = system: OVCAR-8
UACC-62 = system: UACC-62
TK-10 = system: TK-10
SK-MEL-2 = system: SK-MEL-2
SK-OV-3 = system: SK-OV-3
SN12C = system: SN12C
NCI-H226 = system: NCI-H226
SW-620 = system: SW-620

Structure (SMILES) | GI50 (OVCAR-4) | GI50 (SF-295) | GI50 (IGROV-1) | GI50 (RPMI-8226) | GI50 (KM12) | GI50 (HT-29) | GI50 (OVCAR-5) | GI50 (SNB-19) | GI50 (UACC-257) | GI50 (CAKI-1) | GI50 (HCT-15) [µM] | GI50 (SR) | GI50 (OVCAR-8) | GI50 (UACC-62) | GI50 (TK-10) | GI50 (SK-MEL-2) | GI50 (SK-OV-3) | GI50 (SN12C) | GI50 (NCI-H226) | GI50 (SW-620)
N#CC(C#N)SCc1ccccc1 | 23.7 µM (inactive) | 16.8 µM (inactive) | 23.1 µM (inactive) | 6.18 µM (inactive) | 19.7 µM (inactive) | 27.4 µM (inactive) | 17.3 µM (inactive) | 21 µM (inactive) | 23.1 µM (inactive) | 17.7 µM (inactive) | 31.1 | 1.11 µM (active) | 15 µM (inactive) | 34.4 µM (inactive) | 26.5 µM (inactive) | 7.36 µM (inactive) | 24.4 µM (inactive) | 8.3 µM (inactive) | 30.1 µM (inactive) | 4.59 µM (inactive)
COc1cc(/C=C2\C[C@H]3[C@@H]4CC=C5C[C@@H](OC(C)=O)CC[C@]5(C)[C@H]4CC[C@]3(C)\C2=N\O)cc(OC)c1OC | 3.37 µM (inactive) | 3.21 µM (inactive) | 10 µM (inactive) | 0.56 µM (active) | 4.06 µM (inactive) | 5.15 µM (inactive) | 15 µM (inactive) | 29.9 µM (inactive) | 5.74 µM (inactive) | 3.33 µM (inactive) | 4.42 | 3.58 µM (inactive) | 4.29 µM (inactive) | 6.73 µM (inactive) | 13.7 µM (inactive) | 7.01 µM (inactive) | 25.5 µM (inactive) | 6.37 µM (inactive) | 8.45 µM (inactive) | 7 µM (inactive)
Cc1ccc(S(=O)(=O)NC(CO)C(=O)O)cc1 (stereo not given) | > 100 µM (inactive) | > 100 µM (inactive) | > 100 µM (inactive) | > 100 µM (inactive) | > 100 µM (inactive) | > 100 µM (inactive) | > 100 µM (inactive) | > 100 µM (inactive) | > 100 µM (inactive) | > 100 µM (inactive) | > 100 | > 100 µM (inactive) | > 100 µM (inactive) | > 100 µM (inactive) | > 100 µM (inactive) | > 100 µM (inactive) | > 100 µM (inactive) | > 100 µM (inactive) | > 100 µM (inactive) | > 100 µM (inactive)
C=C(C[C@@H](O)[C@H](C)NC(=O)OCc1ccccc1)C(=O)OC(C)(C)C | 47.5 µM (inactive) | 89.1 µM (inactive) | > 100 µM (inactive) | 29.8 µM (inactive) | > 100 µM (inactive) | > 100 µM (inactive) | > 100 µM (inactive) | > 100 µM (inactive) | 32.1 µM (inactive) | 53.6 µM (inactive) | > 100 | 29.6 µM (inactive) | 66.8 µM (inactive) | 51.2 µM (inactive) | > 100 µM (inactive) | > 100 µM (inactive) | > 100 µM (inactive) | > 100 µM (inactive) | > 100 µM (inactive) | 39.7 µM (inactive)
CC1(C)C=Cc2c(cc3oc4ccc5c(c4c(=O)c3c2O)C=CC(C)(C)O5)O1 | > 100 µM (inactive) | > 100 µM (inactive) | > 100 µM (inactive) | > 100 µM (inactive) | > 100 µM (inactive) | > 100 µM (inactive) | > 100 µM (inactive) | > 100 µM (inactive) | > 100 µM (inactive) | > 100 µM (inactive) | > 100 | 75.3 µM (inactive) | > 100 µM (inactive) | > 100 µM (inactive) | > 100 µM (inactive) | > 100 µM (inactive) | > 100 µM (inactive) | > 100 µM (inactive) | > 100 µM (inactive) | > 100 µM (inactive)
O=c1cc(-c2ccc(Cl)cc2)oc2cc(OCCCOc3ccc4c(=O)cc(-c5ccc(Cl)cc5)oc4c3)ccc12 | > 100 µM (inactive) | > 100 µM (inactive) | > 100 µM (inactive) | > 100 µM (inactive) | > 100 µM (inactive) | > 100 µM (inactive) | > 100 µM (inactive) | > 100 µM (inactive) | > 100 µM (inactive) | > 100 µM (inactive) | > 100 | > 100 µM (inactive) | > 100 µM (inactive) | > 100 µM (inactive) | > 100 µM (inactive) | > 100 µM (inactive) | > 100 µM (inactive) | > 100 µM (inactive) | > 100 µM (inactive) | > 100 µM (inactive)
C[n+]1c2ccccc2c(NC(CCCNC(=N)N)C(=O)O)c2ccccc21 (stereo not given) | > 100 µM (inactive) | > 100 µM (inactive) | > 100 µM (inactive) | 7.55 µM (inactive) | > 100 µM (inactive) | > 100 µM (inactive) | > 100 µM (inactive) | > 100 µM (inactive) | > 100 µM (inactive) | > 100 µM (inactive) | > 100 | > 100 µM (inactive) | > 100 µM (inactive) | > 100 µM (inactive) | > 100 µM (inactive) | > 100 µM (inactive) | > 100 µM (inactive) | > 100 µM (inactive) | > 100 µM (inactive) | > 100 µM (inactive)
COc1ccc(/C=C2/CSCC3=C2N=C(S)NC3c2ccc(OC)c(OC)c2OC)c(OC)c1OC (stereo not given) | 2.61 µM (inactive) | 32.6 µM (inactive) | 20 µM (inactive) | 3.7 µM (inactive) | 12.1 µM (inactive) | 12.6 µM (inactive) | 25.2 µM (inactive) | 20.1 µM (inactive) | 14.8 µM (inactive) | 36.6 µM (inactive) | 25.7 | < 0.01 µM (active) | 7.52 µM (inactive) | 16.8 µM (inactive) | 26.2 µM (inactive) | 22.8 µM (inactive) | 49.7 µM (inactive) | 17 µM (inactive) | 35 µM (inactive) | 27.7 µM (inactive)
CCCCCOc1ccc(NC2=C(Cl)C(=O)c3c(O)ccc(O)c3C2=O)cc1 | 5.12 µM (inactive) | > 10 µM (inactive) | > 10 µM (inactive) | 2.43 µM (inactive) | 4.14 µM (inactive) | 4.75 µM (inactive) | > 10 µM (inactive) | 7.87 µM (inactive) | 6.15 µM (inactive) | > 10 µM (inactive) | 2.02 | 2.36 µM (inactive) | 2.99 µM (inactive) | 5.42 µM (inactive) | 5.97 µM (inactive) | > 10 µM (inactive) | > 10 µM (inactive) | 2.96 µM (inactive) | > 10 µM (inactive) | 3.87 µM (inactive)
